Test results published in US20230390235A1, “THERAPEUTIC AGENT FOR COVID-19” (priority 2020, published 2023).

Legend:
[1] = system: SARS-CoV-2 S pseudotype virus N501Y mutant strain; format: cell-based
[2] = system: SARS-CoV-2 S pseudotype virus B.1.429 mutant strain (ε strain); format: cell-based; details: ε mutant strain (B.1.429); 100 μM; ACE2-expressing HEK293T cells; GFP fluorescence; FIG. 1

COCCOCCOC(=O)N[C@@H](CC(C)C)C(=O)N[C@@H](Cc1ccccc1)C(=O)C(=O)NC1CC1 [SNJ-1945]
entry inhibition of pseudotype virus into cells [1]: inhibits entry | entry inhibition of pseudotype virus into cells [2]: inhibits entry
